Data from patent publication US20230103791A1 (GLAXOSMITHKLINE INTELLECTUAL PROPERTY DEVELOPMENT LIMITED, priority 2019, published 2023).

Molecular target: T1, human Nav1.8 (Homo sapiens, UniProt Q9Y5Y9)
T1 construct: expressed in transfected cells; host or cells: HEK293 (HEK293-Nav1.8)
Assay: Nav1.8 sodium channels assay, QPatch 48 HTX electrophysiology in HEK293-Nav1.8 cells
Format: cell-based
Details: at least one set of experimental runs; read-out: average pIC50 value against Nav1.8 (converted)
How it was run: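 HEK293 cells co-expressing human Nav1.8, Navβ1 and TREK1 were voltage-clamped on QPatch 48 HTX. The V1/2 protocol ran at 0.07 Hz: hold −100 mV, 20 ms to 0 mV, 8 s at −46 mV, 20 ms at −100 mV, then 20 ms at 0 mV (P2). P2 current was fitted over 6-8 concentrations for IC50, with vehicle wells used to correct for run-down.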

T1 sequence (Q9Y5Y9 whole entry): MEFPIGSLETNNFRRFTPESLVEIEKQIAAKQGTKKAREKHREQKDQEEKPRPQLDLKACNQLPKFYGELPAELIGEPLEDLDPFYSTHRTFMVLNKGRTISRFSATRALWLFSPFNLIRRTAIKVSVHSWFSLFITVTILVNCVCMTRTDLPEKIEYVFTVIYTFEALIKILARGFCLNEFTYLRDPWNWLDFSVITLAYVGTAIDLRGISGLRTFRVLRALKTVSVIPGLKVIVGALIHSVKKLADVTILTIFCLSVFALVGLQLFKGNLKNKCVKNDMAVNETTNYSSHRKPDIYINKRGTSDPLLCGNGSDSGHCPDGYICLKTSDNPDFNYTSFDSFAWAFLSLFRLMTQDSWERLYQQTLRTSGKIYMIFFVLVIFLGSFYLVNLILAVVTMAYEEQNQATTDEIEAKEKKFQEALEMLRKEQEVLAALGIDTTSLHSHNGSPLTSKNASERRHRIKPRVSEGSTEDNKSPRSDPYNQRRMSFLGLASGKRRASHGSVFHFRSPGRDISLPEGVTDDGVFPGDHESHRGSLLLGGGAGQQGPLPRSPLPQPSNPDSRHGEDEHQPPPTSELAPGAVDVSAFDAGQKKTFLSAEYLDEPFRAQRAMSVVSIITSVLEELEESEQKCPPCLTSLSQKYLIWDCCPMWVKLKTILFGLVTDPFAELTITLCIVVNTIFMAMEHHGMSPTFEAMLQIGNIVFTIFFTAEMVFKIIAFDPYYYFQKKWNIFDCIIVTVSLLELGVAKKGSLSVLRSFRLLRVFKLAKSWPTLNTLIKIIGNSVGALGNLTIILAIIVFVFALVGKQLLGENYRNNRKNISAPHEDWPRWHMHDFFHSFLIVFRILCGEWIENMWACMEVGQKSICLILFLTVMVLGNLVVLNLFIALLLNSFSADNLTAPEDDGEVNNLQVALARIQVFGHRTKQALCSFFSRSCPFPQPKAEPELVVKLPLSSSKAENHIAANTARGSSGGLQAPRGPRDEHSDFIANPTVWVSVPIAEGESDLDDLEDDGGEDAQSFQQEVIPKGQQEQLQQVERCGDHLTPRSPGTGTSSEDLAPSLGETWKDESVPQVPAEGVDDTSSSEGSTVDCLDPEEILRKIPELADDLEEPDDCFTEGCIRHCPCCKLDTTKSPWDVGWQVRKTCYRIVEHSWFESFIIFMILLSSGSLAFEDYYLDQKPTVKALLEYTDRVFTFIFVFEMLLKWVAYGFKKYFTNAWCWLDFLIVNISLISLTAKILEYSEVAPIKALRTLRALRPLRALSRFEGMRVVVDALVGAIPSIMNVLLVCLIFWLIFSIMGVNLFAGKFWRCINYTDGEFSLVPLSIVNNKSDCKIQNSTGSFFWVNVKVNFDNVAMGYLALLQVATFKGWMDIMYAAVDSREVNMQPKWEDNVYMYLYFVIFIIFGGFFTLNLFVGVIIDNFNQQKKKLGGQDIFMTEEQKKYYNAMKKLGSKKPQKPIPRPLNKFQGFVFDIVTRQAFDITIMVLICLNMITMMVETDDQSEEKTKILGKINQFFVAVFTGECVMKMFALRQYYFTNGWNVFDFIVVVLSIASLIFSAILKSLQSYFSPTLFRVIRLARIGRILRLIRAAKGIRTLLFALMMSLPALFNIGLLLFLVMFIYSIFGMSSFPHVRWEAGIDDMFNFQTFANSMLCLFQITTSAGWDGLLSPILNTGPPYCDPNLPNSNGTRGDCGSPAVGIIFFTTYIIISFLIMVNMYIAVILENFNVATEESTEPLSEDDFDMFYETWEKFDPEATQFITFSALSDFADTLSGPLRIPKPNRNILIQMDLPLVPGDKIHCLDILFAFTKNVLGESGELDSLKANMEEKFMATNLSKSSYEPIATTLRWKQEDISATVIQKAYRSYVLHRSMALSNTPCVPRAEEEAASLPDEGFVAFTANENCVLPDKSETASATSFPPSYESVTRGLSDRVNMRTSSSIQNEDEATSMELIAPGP
T1 sequence (Q07699 19-218 partner): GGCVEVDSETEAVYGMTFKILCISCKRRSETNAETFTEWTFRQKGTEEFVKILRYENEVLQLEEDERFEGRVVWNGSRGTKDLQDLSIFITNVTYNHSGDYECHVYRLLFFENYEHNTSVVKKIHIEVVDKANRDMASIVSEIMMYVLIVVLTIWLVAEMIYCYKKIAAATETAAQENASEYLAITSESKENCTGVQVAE

IC50 [nM] | Structure (SMILES)
126 to 631 | Cc1cc(=O)[nH]cc1N1CN(c2ccc(F)cc2C)c2ccc(C(F)(F)F)cc2C1=O [Example 179, 1-(4-fluoro-2-methylphenyl)-3-(4-methyl-6-oxo-1,6-dihydropyridin-3-yl)-6-(trifluoromethyl)-2,3-dihydroquinazolin-4(1H)-one]
≤ 100 | Cc1[nH]c(=O)ccc1N1CN(c2ccc(F)cc2C(C)C)c2ccc(F)cc2C1=O [Example 180, 6-fluoro-1-(4-fluoro-2-isopropylphenyl)-3-(2-methyl-6-oxo-1,6-dihydropyridin-3-yl)-2,3-dihydroquinazolin-4(1H)-one]
126 to 631 | Cc1[nH]c(=O)ccc1N1CN(c2ccc(F)cc2C2CC2)c2ccccc2C1=O [Example 181, 1-(2-cyclopropyl-4-fluorophenyl)-3-(2-methyl-6-oxo-1,6-dihydropyridin-3-yl)-2,3-dihydroquinazolin-4(1H)-one]
≤ 100 | Cc1[nH]c(=O)ccc1N1CN(c2ccc(F)cc2C2CC2)c2cc(C(F)(F)F)ccc2C1=O [Example 182, 1-(2-cyclopropyl-4-fluorophenyl)-3-(2-methyl-6-oxo-1,6-dihydropyridin-3-yl)-7-(trifluoromethyl)-2,3-dihydroquinazolin-4(1H)-one]
126 to 631 | Cc1cc(F)ccc1N1CN(c2ccc(=O)[nH]c2C)C(=O)c2c(F)cccc21 [Example 183, 5-fluoro-1-(4-fluoro-2-methylphenyl)-3-(2-methyl-6-oxo-1,6-dihydropyridin-3-yl)-2,3-dihydroquinazolin-4(1H)-one]
≤ 100 | CCc1cc(F)ccc1N1CN(c2ccc(=O)[nH]c2C)C(=O)c2ccc(C(F)(F)F)cc21 [Example 184, 1-(2-ethyl-4-fluorophenyl)-3-(2-methyl-6-oxo-1,6-dihydropyridin-3-yl)-7-(trifluoromethyl)-2,3-dihydroquinazolin-4(1H)-one]
≤ 100 | Cc1cc(F)ccc1N1CN(c2ccc(=O)[nH]c2C)C(=O)c2ccc(OC(F)F)cc21 [Example 185, 7-(difluoromethoxy)-1-(4-fluoro-2-methylphenyl)-3-(2-methyl-6-oxo-1,6-dihydropyridin-3-yl)-2,3-dihydroquinazolin-4(1H)-one]
794 to 7940 | Cc1cc(F)ccc1-n1c(=O)n(-c2ccc(=O)[nH]c2)c(=O)c2ccc(C(F)(F)F)cc21 [Example 186, 1-(4-fluoro-2-methylphenyl)-3-(6-oxo-1,6-dihydropyridin-3-yl)-7-(trifluoromethyl) quinazoline-2,4(1H,3H)-dione]
≤ 100 | Cc1cc(F)ccc1N1CN(c2ccc(=O)[nH]c2C)C(=O)c2ccc(C3CC3)cc21 [Example 187, 7-cyclopropyl-1-(4-fluoro-2-methylphenyl)-3-(2-methyl-6-oxo-1,6-dihydropyridin-3-yl)-2,3-dihydroquinazolin-4(1H)-one]
≤ 100 | Cc1cc(F)ccc1N1CN(c2ccc(=O)[nH]c2C)C(=O)c2cc(OC(F)(F)F)ccc21 [Example 188, 1-(4-fluoro-2-methylphenyl)-3-(2-methyl-6-oxo-1,6-dihydropyridin-3-yl)-6-(trifluoromethoxy)-2,3-dihydroquinazolin-4(1H)-one]
≤ 100 | Cc1cc(OC(F)F)ccc1N1CN(c2ccc(=O)[nH]c2C)C(=O)c2cc(C(F)(F)F)ccc21 [Example 189, 1-(4-(difluoromethoxy)-2-methylphenyl)-3-(2-methyl-6-oxo-1,6-dihydropyridin-3-yl)-6-(trifluoromethyl)-2,3-dihydroquinazolin-4(1H)-one]
≤ 100 | CCc1[nH]c(=O)ccc1N1CN(c2ccc(F)cc2C)c2cc(OC(F)(F)F)ccc2C1=O [Example 190, 3-(2-ethyl-6-oxo-1,6-dihydropyridin-3-yl)-1-(4-fluoro-2-methylphenyl)-7-(trifluoromethoxy)-2,3-dihydroquinazolin-4(1H)-one]
≤ 100 | CCc1cc(F)ccc1N1CN(c2ccc(=O)[nH]c2C)C(=O)c2cc(Cl)c(F)cc21 [Example 191, 6-chloro-1-(2-ethyl-4-fluorophenyl)-7-fluoro-3-(2-methyl-6-oxo-1,6-dihydropyridin-3-yl)-2,3-dihydroquinazolin-4(1H)-one]
